# Data from article PMC12670779, “Targeting the CXCL12/CXCR4 pathway by an optimized derivative or EPI-X4 preserves chondrocyte function and offers a novel therapeutic approach in rheumatic diseases” (Arthritis Research & Therapy, 2025).
# Counter-ions that a name gives are not always drawn. Like-named read-outs stand apart in the source and are kept apart here. Residues, ends and D or L forms follow the SMILES beside them.
# What was measured:
# mice [1] = conditions: cited from earlier work
# Text: In case of CXCR4, there is evidence that binding of CXCL12 promotes a hypertrophic phenotype in chondrocytes, characterized by enhanced catabolic enzyme production (e.g., matrix metalloproteinase 13 (MMP-13)) and collagen type X expression. […] It should also be considered that the pathophysiological mechanisms are not mediated by chondrocytes alone.
# mice [2] = conditions: cited from earlier work; remark: listed apart in the source
# Text: (§1) In case of CXCR4, there is evidence that binding of CXCL12 promotes a hypertrophic phenotype in chondrocytes, characterized by enhanced catabolic enzyme production (e.g., matrix metalloproteinase 13 (MMP-13)) and collagen type X expression.
# [3] = test system: Dunkin Hartley guinea pigs; conditions: cited from earlier work
# Text: as §1
# ACKR3 [4] = biological target: T1, ACKR3 (Homo sapiens, UniProt P25106); conditions: cited from earlier work
# Text: as §1
# [5] = test system: human articular chondrocytes (hAC); experiment: Osteogenic differentiation of hAC, Alizarin Red S staining (calcium deposition); type: cell-based; conditions: 21 d osteogenic differentiation medium; 200 ng/mL CXCL12; inhibitors 1 µM; n = 5
# Procedure: (§2) hAC were seeded in passage 2 at a density of 1 × 10^4 cells/cm^2 and osteogenic differentiation was induced on the next day by addition of osteogenic differentiation medium [ODM: DMEM, 10% FBS, 1 g/L glucose, 1% L-glutamine, 1% penicillin/streptomycin, 10 mM β-glycerophosphate disodium salt hydrate (Sigma-Aldrich), 0.1 µM dexamethasone, 200 µM 2-phospho-L-ascorbic acid trisodium salt]. […] Medium was changed twice a week and additives were refreshed every time. Cells cultured in BM served as negative control.
# Evaluation of osteogenic differentiation was carried out by means of an Alizarin Red S staining which indicates calcium deposition. At first, cells were incubated in 70% ethanol for 1 h and subsequently stained with a 40 mM Alizarin Red S solution. For quantification, the cells were washed carefully and bound Alizarin Red S was dissolved in 10% Cetylpyridinium (Sigma-Aldrich). With a multimode microplate reader Infinite M200 Pro (Tecan Austria GmbH, Crailsheim, Germany), absorbance at 652 nm was measured and the amount of Alizarin Red S was calculated based on a standard calibration curve.
# [6] = cited from earlier work
# [7] = test system: human articular chondrocytes (hAC); experiment: Gene expression during osteogenic differentiation of hAC (qRT-PCR); type: cell-based; conditions: 14 d osteogenic differentiation; 200 ng/mL CXCL12; inhibitors 1 µM; n = 4
# Procedure: as §2
# mouse = conditions: both inflammatory mouse models; cited from earlier work
# Text: To date, three CXCR4 antagonist have been approved for clinical applications. However, these ligands are only approved for autologous stem cell transplantation in Non-Hodgkin’s lymphoma and the treatment of the WHIM syndrome, a rare congenital immunodeficiency disorder. One decade ago, another promising CXCR4 inhibitor was identified – the Endogenous Peptide Inhibitor of CXCR4, termed EPI-X4 [33]. EPI-X4 is a 16 amino acids long endogenous fragment of human serum albumin and specifically binds to CXCR4 thereby acting as an antagonist and inverse agonist. Using rational dru ...
# [8] = test system: human articular chondrocytes (hAC); experiment: Ki-67 immunocytochemistry (proliferation); type: cell-based; conditions: 48 h; 200 ng/mL CXCL12; simultaneous addition of inhibitors 1 µM; n = 4
# Procedure: On the next day, an Alexa Fluor 488 labled anti-rabbit antibody (1:200, ab150077, Abcam) was added and nuclei were stained with DAPI (0.25 µg/mL). The fluorescence microscope Axioskop 2 mot plus was used for imaging and Ki-67 appeared in green and nuclei in blue.
# ACKR3 [9] = biological target: T1, ACKR3; experiment: β-arrestin-2 recruitment at ACKR3, agonism (NanoBiT, transfected HEK293T cells); type: cell-based; design: SmBiT (NanoBiT fragment); expressed in transfected cells; host or cells: HEK293T; conditions: compound alone
# Procedure: Fifteen thousand HEK293T cells were seeded in 92 µL complete DMEM medium (supplemented with 10% FCS, 1% L-Glutamine and 1% penicillin/streptomycin) and allowed to adhere overnight. On the next day cells were transfected with plasmids containing a β-arrestin-2 coupled to a SmBiT and a CXCR4 or ACKR3 construct coupled to the LgBiT of the NanoBiT protein–protein-interaction assay system. The SmBiT was coupled to the intracellular C-term of the receptor, while the LgBiT was coupled to the N-term of the ß-arrestin. For the transfection, LT1 transfection reagent was used according to manufacturer’s instructions. The next day, medium was changed to 100µL pre-warmed OptiMEM before luminescence measurements were initiated.
# For agonism measurements, single compounds were added to the wells after 10 min of background measurement. Baseline correction was performed in the same manner and resulting AUCs were compared to the buffer-only control wells to calculate n-fold ß-arrestin induction.
# MSCs = conditions: AMD3100 400 µM, cited from earlier work
# CXCR4 = biological target: T2, CXCR4 (Homo sapiens, UniProt P61073); experiment: Inhibition of CXCL12-induced β-arrestin-2 recruitment at CXCR4 (NanoBiT, transfected HEK293T cells); type: cell-based
# T2 construct: SmBiT (NanoBiT fragment); expressed in transfected cells; host or cells: HEK293T
# Procedure: Fifteen thousand HEK293T cells were seeded in 92 µL complete DMEM medium (supplemented with 10% FCS, 1% L-Glutamine and 1% penicillin/streptomycin) and allowed to adhere overnight. On the next day cells were transfected with plasmids containing a β-arrestin-2 coupled to a SmBiT and a CXCR4 or ACKR3 construct coupled to the LgBiT of the NanoBiT protein–protein-interaction assay system. […] For the transfection, LT1 transfection reagent was used according to manufacturer’s instructions. The next day, medium was changed to 100µL pre-warmed OptiMEM before luminescence measurements were initiated.
# For antagonism measurements, cells were first supplied with compounds and 10 min later with 30 nM CXCL12. Subsequently, luminescence signal was measured over 1 h. Baseline luminescence of each well in the first 10 min was averaged and used to calculate the signal-to-noise ratio for all subsequent time points of the same well. The signal-to-noise ratios were further recalculated as a ratio to the average of buffer-only treated wells. These values were plotted over time and areas under curve (AUCs) were determined for each well. Data were normalized to buffer-only wells as 0% and CXCL12-only treated wells as 100%.
# [10] = test system: human articular chondrocytes (hAC); experiment: Gene expression of hypertrophy markers in isolated hAC (qRT-PCR); type: cell-based; conditions: 48 h; 200 ng/mL CXCL12; n = 4
# Procedure: (§3) During experiments, hAC were cultured in medium with reduced FBS content (5%) and stimulated with 200 ng/mL CXCL12, 1 µM compounds and/or 10 ng/mL IL-1β. Stress-induced premature senescence (SIPS) was induced by Doxorubicin (Doxo) (Selleckchem) treatment. The senescent phenotype was confirmed as previously described. In brief, hAC were exposed to 0.1 µM Doxo for 7 days. Doxo was refreshed three times per week.
# human cartilage explants = experiment: Live/dead viability/cytotoxicity assay in cartilage explants; type: cell-based; conditions: day 7; 200 ng/mL CXCL12 with or without CXCR4 inhibitors 1 µM; n = 5
# Procedure: A Live/Dead Viability/Cytotoxicity Assay (Live Technologies) was applied to determine the number of living and dead cells in cartilage explants. A small tissue section of 0.5 mm thickness was extracted from an unfixed cartilage explant and incubated for 40 min in a staining solution (1 µM calcein and 2 µM ethidium homodimer-1). Microscopic analysis was carried out with a Axioskop 2 mot plus microscope and using a z-stack model (AxioVision software).
# [11] = test system: human articular chondrocytes (hAC); experiment: Live cell imaging of undirected migration; type: cell-based; conditions: 200 ng/mL CXCL12; inhibitors 1 µM; monitored for 10 h (method), legend says 48 h; normalized to untreated control; n = 5
# Procedure: Subsequently, cell localization was monitored for 10 h with a Live Cell Imaging Microscope Leica DMI6000 I (Leica Microsystems, Wetzlar, Germany). Images were acquired every 30 min and at least 6 cells of each well were manually tracked with ImageJ 2.9.0. The average migration distance was calculated and values were normalized to the untreated control.
# [12] = test system: human articular chondrocytes (hAC); experiment: Wound healing assay; type: cell-based; conditions: 24 h; 200 ng/mL CXCL12; inhibitors 1 µM; 5% FBS; n ≥ 5
# Procedure: At first, a 2 Well Culture-Insert (Ibidi, Gräfelfing, Germany) was attached on a well of a 24 well plate. In each well of the insert, 70 µL cell suspension containing 20,000 hAC (passage 1 or 2) was added and incubated overnight. Next, medium with reduced FBS content (5%) was added and the insert carefully removed. […] Images were captured (Canon EOS 700D camera (Canon, Krefeld, Germany)) after 0 h and 24 h. Cells migrated into the gap were manually counted as previously described.
# [13] = test system: human articular chondrocytes (hAC); experiment: alamarBlue cytotoxicity/cell proliferation assay; type: cell-based; conditions: 24 h; 200 ng/mL CXCL12; CXCR4 inhibitors 1 µM in combination with CXCL12 or alone; n = 5
# Procedure: as §3
# To quantitatively assess the cell proliferation and cytotoxicity of hAC, an alamarBlue (BioRad, Munich, Germany) assay was used. The assay is based on the conversion of non-fluorescent resazurin to fluorescent resorufin during cellular respiration. The fluorescence intensity of resorufin was measured at 550 nm excitation and 590 nm emission with a multimode microplate reader Infinite M200 Pro (Tecan, Crailsheim, Germany). Unstimulated cells served as baseline (100% cell viability).
# [14] = test system: human articular chondrocytes (hAC); experiment: Chondrogenic re-differentiation of hAC in pellet culture, histological scoring; type: cell-based; conditions: 28 d in chondrogenic differentiation medium; 200 ng/mL CXCL12; inhibitors 1 µM; n ≥ 4
# Procedure: Pellet cultures were generated containing 3.5 × 10^5 hAC in passage 3 and were cultured in chondrogenic differentiation medium [SFM: DMEM, 4.5 g/L glucose, 1% L-glutamine, 1% penicillin/streptomycin, 200 μM 2-phospho-L-ascorbic acid trisodium salt, 0.1% Insulin-Transferrin-Selenium, 0.1 µM dexamethasone (Sigma-Aldrich), 40 µg/mL L-proline (Sigma-Aldrich), 1% pyruvate, 10 ng/mL rhTGF-β3 (PeproTech), 10 ng/mL rhBMP6 (PeproTech)]. The medium was changed twice per week and 200 ng/mL CXCL12 and 1 µM compounds was added. After 28 days, resulting cell pellets were embedded in paraffin and prepared for histology (Collagen type II-IHC and Safranin O staining). For evaluation, a previously established scoring system was used (supplementary Table S2).
# T1 sequence (P25106 whole entry): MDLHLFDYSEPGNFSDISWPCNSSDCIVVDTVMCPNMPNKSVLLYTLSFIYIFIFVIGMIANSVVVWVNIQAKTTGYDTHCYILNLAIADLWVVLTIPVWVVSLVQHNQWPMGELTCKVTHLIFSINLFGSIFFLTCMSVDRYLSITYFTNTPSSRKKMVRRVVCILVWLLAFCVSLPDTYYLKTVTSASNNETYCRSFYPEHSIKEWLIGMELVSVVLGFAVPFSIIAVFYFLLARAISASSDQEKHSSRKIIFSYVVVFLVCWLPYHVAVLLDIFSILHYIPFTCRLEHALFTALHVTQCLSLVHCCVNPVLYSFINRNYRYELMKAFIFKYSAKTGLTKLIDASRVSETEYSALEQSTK
# T1 sequence (P32121 whole entry partner): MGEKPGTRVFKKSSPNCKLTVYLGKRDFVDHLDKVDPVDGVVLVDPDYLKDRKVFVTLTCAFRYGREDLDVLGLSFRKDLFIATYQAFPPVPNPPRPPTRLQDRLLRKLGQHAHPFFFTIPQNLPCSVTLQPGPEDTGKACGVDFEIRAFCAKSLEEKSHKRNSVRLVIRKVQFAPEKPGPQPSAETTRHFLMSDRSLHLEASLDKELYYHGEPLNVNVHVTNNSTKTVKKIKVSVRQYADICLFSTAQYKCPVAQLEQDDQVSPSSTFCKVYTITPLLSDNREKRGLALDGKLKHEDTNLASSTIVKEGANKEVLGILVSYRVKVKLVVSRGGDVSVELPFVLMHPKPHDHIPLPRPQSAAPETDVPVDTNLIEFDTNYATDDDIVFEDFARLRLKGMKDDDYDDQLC
# T2 sequence (P61073 whole entry, the tested form may be a part): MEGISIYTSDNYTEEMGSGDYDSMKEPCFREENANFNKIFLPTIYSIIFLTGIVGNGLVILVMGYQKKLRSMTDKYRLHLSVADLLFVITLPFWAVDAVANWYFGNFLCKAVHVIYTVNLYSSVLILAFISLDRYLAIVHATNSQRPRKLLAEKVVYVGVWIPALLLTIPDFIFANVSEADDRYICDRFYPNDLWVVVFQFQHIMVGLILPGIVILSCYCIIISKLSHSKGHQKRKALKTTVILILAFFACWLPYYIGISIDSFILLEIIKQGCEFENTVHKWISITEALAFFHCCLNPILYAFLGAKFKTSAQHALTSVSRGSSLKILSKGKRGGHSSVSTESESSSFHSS
compound,measurement,setting,value
"c1cc(CN2CCCNCCNCCCNCC2)ccc1CN1CCCNCCNCCCNCC1 [AMD3100, AMD3100 octahydrochloride hydrate]",surgically-induced OA,mice [1]; mice,attenuate
same,severity of surgically-induced OA on inhibition in subchondral bone,"mice [1]; mouse model, delivery to subchondral bone via an osmotic pump",reduced the severity
same,collagen-induced arthritis (CIA),mice [2],attenuate
same,spontaneous OA development,[3],attenuate
same,activity at ACKR3,ACKR3 [4],weak allosteric agonist
same,Ca2+ deposition / matrix calcification (Alizarin Red S),[5],could not find any influence
same,clinical peak plasma concentrations,[6],~ 1 μM
same,expression of the hypertrophic marker COL10A1 during osteogenic differentiation,[7],significantly reduced
same,"gene expression of osteogenic markers (ALPL, RUNX2, SP7, IBSP)",[7],could not find any influence
same,activity in mouse models of atopic dermatitis and eosinophilic asthma,mouse,only poorly active
same,proliferation (Ki-67-positive cells),[8],not altered
same,agonistic activity to recruit β-arrestin-2 at ACKR3,ACKR3 [9]; concentrations up to 10 µM,weak agonistic activity
same,matrix calcification during in vitro osteogenesis of MSCs,MSCs,not affected
same,gene expression of osteogenic markers during in vitro osteogenesis of MSCs,MSCs; to a limited extend,impaired
CC[C@H](C)[C@H](N)C(=O)N[C@@H](CC(C)C)C(=O)N[C@@H](CCCNC(=N)N)C(=O)N[C@@H](Cc1c[nH]c2ccccc12)C(=O)N[C@@H](CO)C(=O)N[C@@H](CCCNC(=N)N)C(=O)N[C@@H](CCCCN)C(=O)N[C@@H](CC(C)C)C(=O)N1CCC[C@H]1C(=O)N[C@@H](CS)C(=O)N[C@H](C(=O)N[C@@H](CO)C(=O)O)C(C)C [EPI-X4 JM#21],EC50,ACKR3 [9]; AUC vs buffer-only control,7800 nM
same,IC50,"CXCR4; read-out: IC50, inhibition of CXCL12-induced recruitment of β-arrestin-2 at CXCR4",164 nM
CC(C)C[C@H](NC(=O)[C@@H](NC(=O)[C@@H]1CCCN1C(=O)[C@@H](NC(=O)[C@H](CO)NC(=O)[C@@H](NC(=O)[C@H](CCC(N)=O)NC(=O)[C@@H]1CCCN1C(=O)[C@@H](NC(=O)[C@H](CCCCN)NC(=O)[C@H](CCCCN)NC(=O)[C@@H](NC(=O)[C@H](Cc1ccc(O)cc1)NC(=O)[C@H](CCCNC(=N)N)NC(=O)[C@@H](NC(=O)[C@@H](N)CC(C)C)C(C)C)[C@@H](C)O)C(C)C)C(C)C)[C@@H](C)O)[C@@H](C)O)C(=O)O [EPI-X4] (H-LVRYTKKVPQVSTPTL-OH),IC50,CXCR4,10.2 nM
"CXCL12: C-X-C motif chemokine 12, ligand of CXCR4 and ACKR3; used as stimulus at 200 ng/mL",gene expression of COL10A1 in isolated chondrocytes,[10],did not significantly induce
same,gene expression of MMP13 in isolated chondrocytes,[10],did not significantly induce
same,Ca2+ deposition / matrix calcification (Alizarin Red S),[5],could not find any influence
same,cytotoxic effects in native cartilage tissue (live/dead assay),human cartilage explants,did not observe any cytotoxic effects
same,expression of the hypertrophic marker COL10A1 during osteogenic differentiation,[7],tended to increase
same,"gene expression of osteogenic markers (ALPL, RUNX2, SP7, IBSP)",[7],could not find any influence
same,migration distance of isolated hAC (live cell tracking),[11],increased
same,number of migrated hAC in wound healing assay,[12],significantly increased
same,proliferation (Ki-67-positive cells),[8],not altered
same,"cytotoxic effects in isolated chondrocytes (alamarBlue, relative fluorescence intensity)",[13],did not observe any cytotoxic effects
same,"neocartilage formation, histologic assessment (score) of pellet culture",[14],did not reveal any significant effect
